Experimental data from patent publication US7229996B2, “Rifamycin derivatives” (Cumbre Pharmaceuticals Inc., priority 2004, dated 2007).
Converted amounts (≈) assume the structure as drawn.

Experiments:
Assay in all cases: MIC by microbroth dilution (NCCLS)
Type in all cases: cell-based
[1] = system: Enterococcus faecalis ATCC29212; settings: E. faecalis ATCC29212, Rif-S; BHI Broth
[2] = system: Staphylococcus aureus ATCC29213; settings: S. aureus ATCC29213, Rif-S; Cation-Adjusted Mueller-Hinton Broth, 37° C.
[3] = system: Staphylococcus aureus ATCC29213 RpoB^D471Y
Description: (§1) Representative compounds were assayed for antimicrobial activity as follows: Minimum Inhibitory Concentrations (MICs) were determined by the microbroth dilution method as per NCCLS guidelines (National Committee for Clinical Laboratory Standards 2000), except that all growth incubations were conducted at 37° C. Bacterial cultures were tested in the following bacteriological media: S. aureus, S. epidermidis, and E. coli in Cation-Adjusted Mueller-Hinton Broth, S. pneumoniae in THY Broth supplemented with 1 mg/mL catalase under 5% CO2 atmosphere, S. pyogenes in THY Broth, E. faecalis in BHI Broth, H. influenzae in BHI Broth supplemented with 0.75 μL of 1 mg/mL NAD and 150 μL of 1 mg/ml hematin per 5 mL, and M. smegmatis in Middlebrook Broth plus ADC Enrichment.
(§2) S. aureus ATCC 29213 RpoB^H481Y is a rifampin-resistant strain with a mutation in RNA polymerase. […] S. aureus ATCC 29213 GyrA^S84LParC^S80F is a quinolone-resistant strain with mutations to both DNA gyrase and topoisomerase IV.

[4] = system: Staphylococcus aureus ATCC29213 GyrA^S84L ParC^S80F; settings: S. aureus ATCC29213 GyrA^S84L ParC^S80F, FQ-R
Description: as §1, §2

[5] = system: Staphylococcus aureus ATCC29213 RpoB^H481Y
Description: as §1, §2

[6] = system: Streptococcus pyogenes ATCC19615; settings: S. pyogenes ATCC19615, Rif-S; THY Broth
[7] = system: Escherichia coli ATCC25922; settings: E. coli ATCC25922, Rif-S; Cation-Adjusted Mueller-Hinton Broth
[8] = system: Haemophilus influenzae ATCC10211; settings: H. influenzae ATCC10211, Rif-S; BHI Broth with NAD and hematin
[9] = system: Streptococcus pneumoniae ATCC6303; settings: S. pneumoniae ATCC6303, Rif-S; THY Broth with catalase, 5% CO2
[10] = system: Staphylococcus epidermidis ATCC 12228; settings: S. epidermidis ATCC 12228, Rif-S
[11] = Staphylococcus aureus, ATCC29213

SMILES: CO[C@H]1/C=C/O[C@@]2(C)Oc3c(C)c(O)c4c(O)c(c(/C=N/N5CCN(C)CC5)c(O)c4c3C2=O)NC(=O)/C(C)=C\C=C\[C@H](C)[C@H](O)[C@@H](C)[C@@H](O)[C@@H](C)[C@H](OC(C)=O)[C@@H]1C [Rifampin]
- Antimicrobial activity (MIC range) [1]: 0.98 µg/mL
- Antimicrobial activity (MIC range) [2]: 0.008 µg/mL
- Antimicrobial activity (MIC range) ([3]; S. aureus ATCC29213 RpoB^D471Y, Rif-R): 8 µg/mL
- MIC [3, 11]: 8 µg/mL (≈ 9.72 µM)
- Antimicrobial activity (MIC range) [4]: 0.008 µg/mL
- Antimicrobial activity (MIC range) ([5]; S. aureus ATCC29213 RpoB^H481Y, Rif-R): >64 µg/mL
- MIC [5, 11]: > 64 µg/mL
- Antimicrobial activity (MIC range) [6]: 0.013 µg/mL
- Antimicrobial activity (MIC range) [7]: 16 µg/mL
- Antimicrobial activity (MIC range) [8]: 0.24 µg/mL
- Antimicrobial activity (MIC range) [9]: 0.061 µg/mL
- Antimicrobial activity (MIC range) [10]: 0.03 µg/mL
